Data taken from patent US8071777B2, “Compounds derived from artesunate, preparation process, pharmaceutical composition and use of the respective medicine” (Fundação Oswaldo Cruz - FIOCRUZ, priority 2004, dated 2011).
Converted amounts (≈) assume the structure as drawn. “And” between values parts separate entries of the source, which are not always exact repeats. Equal entries are not always repeated. Where two headings read alike, the source gives them in different places.

Legend:
[1] = test system: Plasmodium berghei; assay: Antimalarial activity in vivo in mice infected with Plasmodium berghei NK 65, oral treatment for 4 days; conditions: for Average parasitaemia (%) ± SD on day 5 / Average parasitaemia (%) ± SD on day 7: 12 mg/kg via oral for 4 days in sequence, mice infected by Plasmodium berghei; for Average parasitaemia (%) ± SD on day 5: day 5 of infection; for Average parasitaemia (%) ± SD on day 7: day 7 of infection; for Cumulative mortality on day 10 of infection / Cumulative mortality on day 19 of infection / Cumulative mortality on day 23 of infection / Cumulative mortality on day 35 of infection / Cumulative mortality on day 48 of infection: 5 mice in each group; for % Inhibition of parasitaemia on day 5: day 5, in relation to the group control not treated; for % Inhibition of parasitaemia on day 7: day 7, in relation to the group control not treated; for Suppression of the acute parasitaemia of treated animals: evaluations on the 5th and 7th day after the infection; for Parasitaemia at late follow-up: negative or recrudescence: new blood samples days 30 to 48
Experimental: To evaluate the antimalarial activity the following tests were carried out in different experiments in vivo using groups of Swiss female albino mice, weighing between 18 and 22 g. These mice were innoculated with 100,000 red cells infected with strain NK 65 of Plasmodium berghei (cause of malaria in rodents) according to the scheme previously proposed (Peters et al., Annals of Tropical Medicine and Parasitology, 1993, 87, 547). After inoculating the parasite via intraperitoneal, the animals were divided at random into groups of five. The treatment of the mice were initiated the day after the inoculation, for 4 days in sequence, applying samples “A”, “B” e “C” administered via oral. The different groups of mice, represented by groups treated and not treated (group control) were kept in the same conditions, in polyacetylene cages, water and ration was offered ad libitum. A group was treated with chloroquine, an antimalarial of reference. The development of the infection was verified in all groups through blood samples collected for parasitaemia on the 5th and 7th day after the infection, and the parasitaemia was measured based on double blind tests, in codified slides, in order to minimize occasional bias.
(§1) Not only in vivo but also in vitro, the activity of drugs was evaluated in relation to the group control without any drugs.

[2] = test system: P. falciparum (W2); assay: Antimalarial activity in vitro against P. falciparum cultivated in red cells, 72 hours; assay type: cell-based; conditions: for IC50: Plasmodium falciparum
Experimental: The tests in vitro to evaluate the antimalarial activity were carried out with P. falciparum cultivated in red cells in 10% of human serum, in slabs of 96 wells, using Rieckman et al's traditional method, modified by Carvalho et al. Braz J. Med. Biol. Research, 1991. The parasites were incubated for 72 hours in culture medium having samples “A”, “B” and “C” in different dilutions in ideal atmospherical conditions at 37° C.; drugs and the culture medium was changed every 24 hours. After this period, blood samples were collected for evaluation of the activity of each compound. As to control wells with complete culture medium were maintained, but with no addition of drugs, and wells in which chloroquine was present in different tested concentrations in triplicate.
as §1

[3] = 12 mg/kg via oral for 4 days, day 48
[4] = P. falciparum (W2) in vitro, Experiment 1, approximated
[5] = P. falciparum (W2) in vitro, Experiment 2, approximated
[6] = W2, read-out: Inhibiting concentration (IC) 50%, Experiment 1
[7] = W2, read-out: Inhibiting concentration (IC) 50%, Experiment 2

Compound | Average parasitaemia (%) ± SD on day 5 [1] [%] | Average parasitaemia (%) ± SD on day 7 [1] [%] | Cumulative mortality on day 10 of infection ([1]; 12 mg/kg via oral for 4 days) | Cumulative mortality on day 19 of infection ([1]; 12 mg/kg via oral for 4 days) | Cumulative mortality on day 23 of infection ([1]; 12 mg/kg via oral for 4 days) | Cumulative mortality on day 35 of infection ([1]; 12 mg/kg via oral for 4 days) | Cumulative mortality on day 48 of infection [1, 3] | % Inhibition of parasitaemia on day 5 ([1]; 12 mg/kg via oral for 4 days) | % Inhibition of parasitaemia on day 7 ([1]; 12 mg/kg via oral for 4 days) | Suppression of the acute parasitaemia of treated animals ([1]; 12 mg/kg via oral) [%] | Parasitaemia at late follow-up: negative or recrudescence ([1]; 12 mg/kg via oral) | Inhibiting concentration (IC) 40%, Experiment 1 [2, 4] [ng/mL] | Inhibiting concentration (IC) 80%, Experiment 1 [2, 4] [ng/mL] | Inhibiting concentration (IC) 95%-100%, Experiment 1 [2, 4] | Inhibiting concentration (IC) 40%, Experiment 2 [2, 5] [ng/mL] | Inhibiting concentration (IC) 80%, Experiment 2 [2, 5] | Inhibiting concentration (IC) 95%-100%, Experiment 2 [2, 5] | IC50 [2, 6] [ng/mL] | IC50 [2, 7] [ng/mL] | also measured
CC1CCC2C(C)C(OC(=O)CCC(=O)O)OC3OC4(C)CCC1C32OO4.OC(c1cc(C(F)(F)F)nc2c(C(F)(F)F)cccc12)C1CCCCN1 (stereo not drawn) [A, salt of artesunate and mefloquine] | 0 | 0 | 0 | 0 | 0 | 0 | 0 | (100%) | (100%) | 100 | remained negative | 0.83 | 1.85 | 4.07 ng/mL | 0.46 | 1.5 ng/mL | ≧5 ng/ml |  |  | Cure of malaria in treated animals ([1]; 12 mg/kg via oral for 4 days): the cure of malaria was observed; Inhibiting concentration (IC) 50%, Experiment 1 [2, 4]: 1.03 ng/mL; Inhibiting concentration (IC) 50%, Experiment 2 [2, 5]: 0.8 ng/mL
C[C@H]1[C@H](OC(=O)CCC(=O)O)O[C@@H]2O[C@@]3(C)CC[C@H]4[C@H](C)CC[C@@H]1[C@@]24OO3 [B, artesunate] | 0 | 0 | 0 | 0 | 1 | 2 | 3 | (100%) | (100%) | 100 | showed recrudescency of the parasitaemia | 0.37 | 0.99 | 1.54 ng/mL | 0.33 | 1.3 ng/mL | ≧5 ng/ml | 0.46 (≈ 1.2 nM) | 0.43 (≈ 1.12 nM) | Mortality during follow-up of treatment ([1]; 12 mg/kg via oral, follow-up of about 30 days): mortality occurred; % parasitaemia, Average ± Sd, day 30 ([1]; 12 mg/kg, group average, day 30): 16.6 ± 20.4%; % parasitaemia, Average ± Sd, day 33 ([1]; 12 mg/kg, group average, day 33): 23.3 ± 24.3%; % parasitaemia, Average ± Sd, day 36 ([1]; 12 mg/kg, group average, day 36): 33.5 ± 27.4%; % parasitaemia, Average ± Sd, day 48 ([1]; 12 mg/kg, group average, day 48): 30 ± 21.2%; % Individual parasitaemia on day 30 (recrudescence) ([1]; 12 mg/kg, individual animals infected by P. berghei, day 30, † = Animal death): 0.6% and 24% and 0% and 42%; % Individual parasitaemia on day 33 (recrudescence) ([1]; 12 mg/kg, individual animals infected by P. berghei, day 33, † = Animal death): 5% and 40% and 0% and 48%; % Individual parasitaemia on day 36 (recrudescence) ([1]; 12 mg/kg, individual animals infected by P. berghei, day 36, † = Animal death): 14% and 53% and 0%; % Individual parasitaemia on day 48 (recrudescence) ([1]; 12 mg/kg, individual animals infected by P. berghei, day 48, † = Animal death): 30% and 0%
OC(c1cc(C(F)(F)F)nc2c(C(F)(F)F)cccc12)C1CCCCN1 (stereo not drawn) [C, mefloquine] | 0 | 0 | 0 | 0 | 0 | 0 | 0 | (100%) | (100%) | 100 | remained negative | 0.93 | 12.9 | ≧50 ng/ml | 2.8 | ≧5 ng/ml | ≧5 ng/ml |  |  | IC50 ([2]; P. falciparum (W2) in vitro, Experiment 1, approximated, read-out: Inhibiting concentration (IC) 50%, Experiment 1): 1.24 ng/mL (≈ 3.28 nM); IC50 ([2]; P. falciparum (W2) in vitro, Experiment 2, approximated, read-out: Inhibiting concentration (IC) 50%, Experiment 2): 3.4 ng/mL (≈ 8.99 nM)
CCN(CC)CCCC(C)Nc1ccnc2cc(Cl)ccc12 (stereo not drawn) [QC, chloroquine] |  |  |  |  |  |  |  |  |  |  |  | 41.1 | 82.3 | 277.7 ng/mL | 48.2 | 133.4 ng/mL | ≧200 ng/ml | 51.3 (≈ 160 nM) | 55.5 (≈ 174 nM) | 
